Our source for the Kd values is publication PMC9401617 (Science Advances, 2022).

Residue numbers refer to the chain shown, from its start. Where two headings read alike, the source gives them in different places.

Series [1] concerns the target T1, hUHRF1 (Homo sapiens, UniProt Q96T88, D142A).
T1 sequence (Q96T88 1-793 D142A): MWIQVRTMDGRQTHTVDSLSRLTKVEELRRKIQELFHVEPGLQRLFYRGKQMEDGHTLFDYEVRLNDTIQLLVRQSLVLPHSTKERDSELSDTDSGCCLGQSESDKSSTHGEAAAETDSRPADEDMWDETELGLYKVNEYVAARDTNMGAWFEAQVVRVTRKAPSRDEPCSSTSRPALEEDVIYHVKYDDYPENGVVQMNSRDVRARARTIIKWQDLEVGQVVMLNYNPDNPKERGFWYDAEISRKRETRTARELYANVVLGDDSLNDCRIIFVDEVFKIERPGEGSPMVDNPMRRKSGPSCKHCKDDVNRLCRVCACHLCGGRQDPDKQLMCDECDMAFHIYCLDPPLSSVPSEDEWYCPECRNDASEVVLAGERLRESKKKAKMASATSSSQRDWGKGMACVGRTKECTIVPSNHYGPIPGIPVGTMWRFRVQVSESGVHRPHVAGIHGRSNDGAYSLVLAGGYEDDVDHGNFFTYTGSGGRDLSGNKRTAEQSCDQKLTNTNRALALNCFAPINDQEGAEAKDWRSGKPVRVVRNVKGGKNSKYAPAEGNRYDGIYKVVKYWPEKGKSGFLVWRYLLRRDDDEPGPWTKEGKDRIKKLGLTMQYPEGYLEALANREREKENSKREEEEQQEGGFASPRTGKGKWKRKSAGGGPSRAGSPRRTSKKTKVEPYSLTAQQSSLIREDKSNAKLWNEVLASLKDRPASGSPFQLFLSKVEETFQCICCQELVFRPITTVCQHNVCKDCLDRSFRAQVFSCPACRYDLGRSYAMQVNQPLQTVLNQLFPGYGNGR
As to the kind of experiment: MST with labeled recombinant mutant protein. In kind it is binding.

In series [2] the target is T2, hUHRF1 (Homo sapiens, UniProt Q96T88).
T2 sequence (Q96T88 1-793): T1 sequence (Q96T88 1-793 D142A) with A142D
The experiment in a line: MST with labeled recombinant protein. In kind it is binding.

The target in series [3] is T2, hUHRF1. As to the kind of experiment: MST with labeled recombinant protein. It counts as binding. This is another data set of the same source.
Series [4] addresses T3, hUHRF1 (Homo sapiens, UniProt Q96T88, R649A).
T3 sequence (Q96T88 1-793 R649A): T1 sequence (Q96T88 1-793 D142A) with A142D, R649A
As to the kind of experiment: MST with labeled recombinant mutant protein. It counts as binding.

The test system of another series is hUHRF1 (Homo sapiens). As to the kind of experiment: EMSA. (In general: A gel shift assay detects complexes by their altered migration in electrophoresis.)

Broadly, the Kd is the concentration at which binding is half-saturated. In the case of `CCCCCCCCCCCCCCCC(=O)OC[C@H](COP(=O)(O)O[C@H]1[C@H](O)[C@@H](OP(=O)(O)O)[C@H](O)[C@@H](O)[C@H]1O)OC(=O)CCCCCCCCCCCCCCC` [D142*, di-C 16:0 PI5P], the Kd on hUHRF1 [1] was found to be 60 µM. Take `CCCCCCCCCCCCCCCC(=O)OC[C@H](COP(=O)(O)O[C@@H]1[C@H](O)[C@H](OP(=O)(O)O)[C@@H](O)[C@H](O)[C@H]1O)OC(=O)CCCCCCCCCCCCCCC` [PI3P, di-C 16:0 PI3P]: at hUHRF1 [2], the Kd was 5.5 µM. On to `CCCCCCCCCCCCCCCC(=O)OC[C@H](COP(=O)(O)O[C@H]1[C@H](O)[C@@H](OP(=O)(O)O)[C@H](O)[C@@H](O)[C@H]1O)OC(=O)CCCCCCCCCCCCCCC` [PI5P, di-C 16:0 PI5P], for which the Kd at hUHRF1 [3] amounted to 4.7 µM.

Take `CCCCCCCCCCCCCCCC(=O)OC[C@H](COP(=O)(O)O[C@H]1[C@H](O)[C@@H](OP(=O)(O)O)[C@H](O)[C@@H](O)[C@H]1O)OC(=O)CCCCCCCCCCCCCCC` [R649*, di-C 16:0 PI5P]: the Kd at hUHRF1 [4] was found to be 3 µM. In turn, “H3unmodified mononucleosome, 147 bp Widom 601” gave a Kd with hUHRF1 (Homo sapiens) of 1100 nM.
